Key:
AMPKinase = AMPKinase activation in HepG2 cells (Western blot of phosphorylated AMPK and ACC); format: cell-based; conditions: HepG2, 1 hour, FIG. 2a
From the text: OHP effects on AMPKinase activation in HepG2 cells. […] (RNeasy kit, QIAGEN). OHP effects on APPL1 nuclear translocation. […] The results are presented at FIGS. 2a and 2b.

[1] = system: mitochondrial oxidative phosphorylation complex I; assay: Western blot of mitochondrial oxidative phosphorylation complex I protein levels in human coronary artery endothelial cells; format: cell-based; conditions: HCAEC, 48 h, FIG. 1a
Description: Cells were grown in Dulbecco's modified Eagle's media supplemented with fetal bovine serum (10%) to ˜90% confluence. Cells were treated with either vehicle (water) or incremental doses of the agent (dissolved in water) for a total of 48 h (treatment was repeated at the 24 h time point). At the end of the experiment, cells were lysed in Western blot sample buffer. A fixed amount of protein (25 micrograms) was loaded onto a polyacrylamide gel and run for 1 h to allow for the electrophoretic separation of proteins. The gel was then transferred onto a polyvinyl membrane for incubation with blocking buffer prior to exposure to the 1ry antibody (anti-human complex […]. Following a 1 h incubation at room temperature the membrane was washed and then exposed to the 2ry antibody for 1 h. after a second set of washes the membrane was incubated with an enhanced-chemiluminescence kit solution followed by exposure to X-ray film. The image obtain was used to quantitative changes in complex I protein levels as a function of compound dose. To normalize for loading differences the membrane was re-incubated (as above) with the subunit 6 ribosomal protein (S6RP) and exposed to X-ray film. Changes in values for complex I levels are normalized to differences in S6RP levels. All data are normalized to the values noted for cells treated with vehicle only (=100%). The results are presented at FIG. 1 a.

HepG2 cells [2] = assay: Fat oxidation (intracellular beta-hydroxybutyrate, triglycerides) in HepG2 cells; format: cell-based; conditions: HepG2, FIG. 5
Description: (§1) HepG2 cells were exposed to serum-free media for 3 hours and then exposed to gluconeogenic factors (lactate and pyruvate 10:1 ratio) and stimulators (cAMP) in the presence of increasing concentrations of OHP (in nM). Intracellular glucose production—a marker of de novo gluconeogenesis—was determined enzymatically (biovision glucose determination kit), as well as intracellular beta-hydroxybutyrate levels (a marker of fat oxidation) and triglycerides (substrate for fat oxidation). […] The results are depicted at FIG. 5.

HepG2 cells [3] = assay: Intracellular glucose production (de novo gluconeogenesis) in HepG2 cells; format: cell-based; conditions: HepG2, FIG. 5
Description: as §1

AMP KINASE = AMP KINASE activation, cell based ELISA in Hepatoma (Hep 2) liver cells; conditions: 0.1 nM, 30 m, over baseline of 100 (DMSO control)
Description: AMP KINASE activation potential of the compounds was evaluated using cell based ELISA·Hepatoma (Hep 2) liver cells were maintained in a T 75 culture flask-containing 25 mM DMEM+10% fetal calf serum. The cells were maintained in a T 75 culture flask-containing medium (DMEM+10% fetal calf serum). On reaching a confluence of 70 to 80%, the cells were seeded in a 96 well plate at a density of 40,000 cells per well in 25 mM DMEM+10% FCS medium. The plates were then incubated at 37° C. with 5% CO2 for 24 hours. Various concentrations of drugs were prepared in DMSO and diluted to required concentration with the medium and incubated at 37° C. with 5% CO2 for 30 min and 1 h for Epicatechin analogs and 11-BHP analogs respectively. Metformin was used as positive control·Cells were fixed with 4% formaldehyde for 30 minutes at room temperature and washed three times with PBS containing 0.1% Triton X-100. Endogenous peroxidase was quenched with 1% H2O2 in PBS-T (0.1% Tween 20) for 30 minutes and washed three times in PBS-T. Cells were blocked with 1% BSA in PBS-T for 1 hour. The cells were incubated with 1:1000 dilution primary antibody (Phospho-AMPKα ([…]) Rabbit mAb, Cell Signaling in PBS-T containing 5% BSA at 4° C. overnight. The cells were then washed three times with PBS-T for 5 minutes and incubated with 1:1000 dilution secondary antibody (Anti-rabbit IgG, HRP-linked Antibody, Cell Signaling) in PBS-T with 1% BSA for 1 hour at RT·Cells were washed three times with PBS-T for 5 minutes The cells were incubated with 100 μl TMB substrate solution for 30 minutes and the reaction was stopped with 100 μl of 2N H2SO4. Then the plate was read at 450 nm using ELISA plate reader and absorbance recorded. % activity was calculated using DMSO control as 100%.

HepG2 cells [4] = assay: Mitochondrial DNA content in HepG2 cells; format: cell-based; conditions: HepG2, 24 hours, FIG. 3b
From the text: The results are depicted at FIGS. 3a and 3b.

[5] = listed as 11β-hydroxypregnenolone

Structure (SMILES): CC(=O)C1CC[C@H]2[C@@H]3CC=C4CC(O)CC[C@]4(C)[C@H]3[C@@H](O)C[C@]12C (stereo partly drawn) [Compound 1039, 1-((8S,9S,10R,11S,13S,14S)-3,11-dihydroxy-10,13-dimethyl-2,3,4,- 7,8,9,10,11,12,13,14,15,16,17-tetradecahydro-1H-cyclopenta[a]-phenanthren-17-yl)ethanone]
- activation of AMP kinase (AMPKinase): activates AMPkinase
- activation of AMP kinase (AMPKinase; [5]): activation of AMP KINASE
- mitochondrial biogenesis (complex I protein levels) [1]: causes mitochondrial biogenesis
- mitochondrial biogenesis (complex I protein levels) [1, 5]: mitochondrial biogenesis
- fat oxidation (HepG2 cells [2]): stimulates oxidation of fat
- fat oxidation (HepG2 cells [2]; [5]): stimulation of fat oxidation
- hepatic gluconeogenesis (intracellular glucose production) (HepG2 cells [3]): reduces hepatic gluconeogenesis
- hepatic gluconeogenesis (intracellular glucose production) (HepG2 cells [3]; [5]): reduction of hepatic gluconeogenesis
- % pAMPK (AMP KINASE): 109%
- mitochondrial DNA content (HepG2 cells [4]): increases the DNA content of mitochondria
- mitochondrial DNA content (HepG2 cells [4]; [5]): increase of mitochondrial DNA content
